Reference: patent US9340574B2, “Inhibitors of protein tyrosine phosphatases” (Indiana University Research and Technology Corporation, priority 2012, dated 2016)

Columns and labels:
[1] = biological target: PTP1B (Homo sapiens (Human), UniProt P18031); test: pNPP hydrolysis enzyme assay, PTP1B; type: biochemical
Protocol: (§1) Enzyme kinetic assay. PTP activity was assayed using p-nitrophenyl phosphate (pNPP) as a substrate in 3,3-dimethylglutarate buffer (50 mM 3,3-dimethylglutarate, pH 7.0, 1 mM EDTA, 150 mM NaCl, 2 mM DTT, 0.1 mg/mL BSA) at 25° C. The assays were performed in 96-well plates. Normally, to determine the IC50 values, the reaction was initiated by the addition of enzyme (final concentration at 10 nM) to a reaction mixture (0.2 mL) containing 2 mM (Km for the substrate) pNPP with various concentrations of inhibitors. The reaction rate was measured using a SpectraMax Plus 384 Microplate Spectrophotometer (Molecular Devices). To determine the mode of inhibition, the reactions were initiated by the addition of PTP-MEG2 to the reaction mixtures (0.2 mL) containing various concentrations of pNPP with different concentrations of the inhibitor 7. Data were fitted using SigmaPlot Enzyme Kinetics Module (Systat Software, Inc.).

[2] = biological target: FAP1 (Homo sapiens (Human), UniProt Q12923); test: pNPP hydrolysis enzyme assay, FAP1; type: biochemical
Chain of FAP1 (Q12923 whole entry, species assumed): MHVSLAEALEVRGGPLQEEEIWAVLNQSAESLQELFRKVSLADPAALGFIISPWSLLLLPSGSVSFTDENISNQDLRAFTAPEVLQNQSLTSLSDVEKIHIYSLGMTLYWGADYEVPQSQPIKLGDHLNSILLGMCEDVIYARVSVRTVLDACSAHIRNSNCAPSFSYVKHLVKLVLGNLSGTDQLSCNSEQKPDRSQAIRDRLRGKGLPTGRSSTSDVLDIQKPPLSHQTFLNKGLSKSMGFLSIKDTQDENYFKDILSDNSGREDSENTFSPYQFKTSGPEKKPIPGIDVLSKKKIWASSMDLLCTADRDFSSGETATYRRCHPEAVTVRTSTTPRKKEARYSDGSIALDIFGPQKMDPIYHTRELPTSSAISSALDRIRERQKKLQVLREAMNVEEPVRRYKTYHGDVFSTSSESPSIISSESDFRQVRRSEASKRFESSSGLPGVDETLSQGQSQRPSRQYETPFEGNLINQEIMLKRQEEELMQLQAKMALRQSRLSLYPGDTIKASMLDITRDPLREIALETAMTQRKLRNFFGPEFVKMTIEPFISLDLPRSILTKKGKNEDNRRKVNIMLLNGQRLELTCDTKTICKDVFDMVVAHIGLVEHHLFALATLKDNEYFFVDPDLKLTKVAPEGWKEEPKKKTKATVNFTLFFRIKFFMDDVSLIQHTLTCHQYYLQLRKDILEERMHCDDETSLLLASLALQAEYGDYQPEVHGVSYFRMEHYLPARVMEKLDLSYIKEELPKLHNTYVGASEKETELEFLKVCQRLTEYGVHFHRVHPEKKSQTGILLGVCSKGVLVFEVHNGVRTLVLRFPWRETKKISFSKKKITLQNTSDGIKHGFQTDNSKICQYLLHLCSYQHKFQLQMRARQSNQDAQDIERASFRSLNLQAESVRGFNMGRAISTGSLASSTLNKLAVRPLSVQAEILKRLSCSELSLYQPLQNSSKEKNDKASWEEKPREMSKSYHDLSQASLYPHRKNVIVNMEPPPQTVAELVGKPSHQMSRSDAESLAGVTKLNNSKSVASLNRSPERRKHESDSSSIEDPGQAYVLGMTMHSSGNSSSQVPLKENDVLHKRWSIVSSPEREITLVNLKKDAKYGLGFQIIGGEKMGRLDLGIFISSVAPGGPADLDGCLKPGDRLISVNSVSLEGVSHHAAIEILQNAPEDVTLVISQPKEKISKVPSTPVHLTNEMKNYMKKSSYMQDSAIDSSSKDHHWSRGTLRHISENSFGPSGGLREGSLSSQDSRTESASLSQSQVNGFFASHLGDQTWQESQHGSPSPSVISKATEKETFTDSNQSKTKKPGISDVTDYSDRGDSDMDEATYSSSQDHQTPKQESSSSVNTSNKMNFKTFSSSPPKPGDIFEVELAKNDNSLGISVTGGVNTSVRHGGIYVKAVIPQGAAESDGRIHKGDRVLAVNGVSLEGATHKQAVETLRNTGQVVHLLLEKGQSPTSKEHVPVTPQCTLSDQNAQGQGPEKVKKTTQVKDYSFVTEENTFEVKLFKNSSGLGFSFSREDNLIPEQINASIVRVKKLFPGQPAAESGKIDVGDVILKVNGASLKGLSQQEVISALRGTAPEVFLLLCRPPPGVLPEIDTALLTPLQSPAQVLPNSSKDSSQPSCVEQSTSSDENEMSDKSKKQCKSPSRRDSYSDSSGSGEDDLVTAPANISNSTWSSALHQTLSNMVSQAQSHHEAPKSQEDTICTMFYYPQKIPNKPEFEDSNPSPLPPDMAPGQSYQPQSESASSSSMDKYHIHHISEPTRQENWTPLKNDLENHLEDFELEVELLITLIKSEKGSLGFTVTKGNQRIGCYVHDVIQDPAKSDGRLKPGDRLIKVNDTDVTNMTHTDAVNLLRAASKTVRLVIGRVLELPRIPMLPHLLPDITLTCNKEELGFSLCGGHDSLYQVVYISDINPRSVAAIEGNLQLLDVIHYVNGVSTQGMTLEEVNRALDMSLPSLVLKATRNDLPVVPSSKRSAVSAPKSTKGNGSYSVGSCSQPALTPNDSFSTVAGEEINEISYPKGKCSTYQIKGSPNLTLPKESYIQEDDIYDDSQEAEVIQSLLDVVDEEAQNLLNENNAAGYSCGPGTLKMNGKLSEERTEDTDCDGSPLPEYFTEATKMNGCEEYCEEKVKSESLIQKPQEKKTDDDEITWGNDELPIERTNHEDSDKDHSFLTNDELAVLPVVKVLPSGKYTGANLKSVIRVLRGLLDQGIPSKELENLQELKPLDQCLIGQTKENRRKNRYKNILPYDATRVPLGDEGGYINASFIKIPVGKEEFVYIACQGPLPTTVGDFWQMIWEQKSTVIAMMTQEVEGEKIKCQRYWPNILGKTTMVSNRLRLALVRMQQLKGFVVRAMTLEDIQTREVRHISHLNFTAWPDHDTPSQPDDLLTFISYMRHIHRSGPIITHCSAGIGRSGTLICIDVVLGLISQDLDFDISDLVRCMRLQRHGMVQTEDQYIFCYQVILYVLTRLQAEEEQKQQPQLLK
Protocol: as §1

[3] = biological target: HePTP (Homo sapiens (Human), UniProt P35236); test: pNPP hydrolysis enzyme assay, HePTP; type: biochemical
Chain of HePTP (P35236 whole entry, species assumed): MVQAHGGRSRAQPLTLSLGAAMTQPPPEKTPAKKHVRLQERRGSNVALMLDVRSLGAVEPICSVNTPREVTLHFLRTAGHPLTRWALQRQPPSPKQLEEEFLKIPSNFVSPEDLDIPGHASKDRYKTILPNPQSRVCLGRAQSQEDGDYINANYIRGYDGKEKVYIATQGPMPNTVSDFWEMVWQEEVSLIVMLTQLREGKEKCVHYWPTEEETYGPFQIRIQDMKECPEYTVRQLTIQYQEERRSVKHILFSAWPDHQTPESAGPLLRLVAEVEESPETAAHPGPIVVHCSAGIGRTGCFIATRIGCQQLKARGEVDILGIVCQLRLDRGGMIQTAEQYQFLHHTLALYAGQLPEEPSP
Protocol: as §1

[4] = biological target: LYP (Homo sapiens (Human), UniProt Q9Y2R2); test: pNPP hydrolysis enzyme assay, LYP; type: biochemical
Chain of LYP (Q9Y2R2 whole entry, species assumed): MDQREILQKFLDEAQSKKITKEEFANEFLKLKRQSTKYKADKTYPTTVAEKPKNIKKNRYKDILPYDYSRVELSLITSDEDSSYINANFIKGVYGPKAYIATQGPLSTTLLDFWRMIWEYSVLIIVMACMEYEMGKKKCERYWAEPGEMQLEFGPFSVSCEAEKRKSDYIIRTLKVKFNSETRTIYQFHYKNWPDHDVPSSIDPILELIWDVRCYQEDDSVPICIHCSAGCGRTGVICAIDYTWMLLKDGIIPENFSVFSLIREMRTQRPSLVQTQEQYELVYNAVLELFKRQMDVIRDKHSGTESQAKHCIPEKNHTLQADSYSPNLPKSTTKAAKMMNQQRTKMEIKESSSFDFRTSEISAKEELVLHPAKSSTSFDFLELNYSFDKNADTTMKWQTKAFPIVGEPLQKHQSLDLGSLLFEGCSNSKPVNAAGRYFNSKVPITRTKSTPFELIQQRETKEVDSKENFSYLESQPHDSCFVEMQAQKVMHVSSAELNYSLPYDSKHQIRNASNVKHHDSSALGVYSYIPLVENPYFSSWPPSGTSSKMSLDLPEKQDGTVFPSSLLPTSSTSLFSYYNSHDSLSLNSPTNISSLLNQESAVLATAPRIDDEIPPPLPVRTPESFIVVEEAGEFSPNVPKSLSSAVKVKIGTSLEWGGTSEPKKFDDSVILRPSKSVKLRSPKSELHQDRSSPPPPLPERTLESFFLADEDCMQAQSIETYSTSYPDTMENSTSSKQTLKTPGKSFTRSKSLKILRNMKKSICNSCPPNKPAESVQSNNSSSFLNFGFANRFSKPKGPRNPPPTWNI
Protocol: as §1

[5] = biological target: Laforin (Homo sapiens (Human), UniProt O95278); test: pNPP hydrolysis enzyme assay, Laforin; type: biochemical
Chain of Laforin (O95278 whole entry, species assumed): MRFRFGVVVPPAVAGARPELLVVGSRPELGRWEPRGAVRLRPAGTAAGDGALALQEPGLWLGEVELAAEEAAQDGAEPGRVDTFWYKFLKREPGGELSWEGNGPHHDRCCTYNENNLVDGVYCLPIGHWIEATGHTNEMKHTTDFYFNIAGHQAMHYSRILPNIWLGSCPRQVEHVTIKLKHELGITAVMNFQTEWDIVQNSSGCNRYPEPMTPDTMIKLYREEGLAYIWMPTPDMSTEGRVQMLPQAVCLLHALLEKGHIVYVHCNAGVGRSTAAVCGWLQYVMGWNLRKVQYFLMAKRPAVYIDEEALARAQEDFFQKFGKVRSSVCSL
Protocol: as §1

[6] = biological target: SHP1 (Homo sapiens (Human), UniProt P29350); test: pNPP hydrolysis enzyme assay, SHP1; type: biochemical
Protocol: as §1

[7] = biological target: PTPε (Homo sapiens (Human), UniProt P23469); test: pNPP hydrolysis enzyme assay, PTPε; type: biochemical
Chain of PTPε (P23469 20-700): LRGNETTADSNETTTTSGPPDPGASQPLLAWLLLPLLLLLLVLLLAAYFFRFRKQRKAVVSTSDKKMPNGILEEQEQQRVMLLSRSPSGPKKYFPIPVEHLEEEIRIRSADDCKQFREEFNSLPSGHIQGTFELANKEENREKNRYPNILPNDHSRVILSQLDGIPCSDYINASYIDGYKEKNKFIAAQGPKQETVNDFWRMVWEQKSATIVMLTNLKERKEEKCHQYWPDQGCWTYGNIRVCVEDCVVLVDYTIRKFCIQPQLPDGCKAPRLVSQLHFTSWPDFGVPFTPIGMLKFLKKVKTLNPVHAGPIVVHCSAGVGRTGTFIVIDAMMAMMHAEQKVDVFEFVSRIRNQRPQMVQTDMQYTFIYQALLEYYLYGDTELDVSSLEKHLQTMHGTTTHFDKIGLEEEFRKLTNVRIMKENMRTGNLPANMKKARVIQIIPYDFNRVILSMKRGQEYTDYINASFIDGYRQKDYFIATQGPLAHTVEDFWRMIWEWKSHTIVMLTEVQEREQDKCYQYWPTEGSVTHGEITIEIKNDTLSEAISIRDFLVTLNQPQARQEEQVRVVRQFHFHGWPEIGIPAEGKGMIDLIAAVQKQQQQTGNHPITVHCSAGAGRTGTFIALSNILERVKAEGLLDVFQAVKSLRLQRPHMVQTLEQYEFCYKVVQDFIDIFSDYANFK
Protocol: as §1

[8] = test system: panel of mammalian PTPs (PTP-MEG1, SHP1, SHP2, Lyp, FAP-1, PTP-PEST, PTPH1, Laforin, HePTP, CD45, LAR, DEP1, PTPμ, PTPγ, PTPβ, PTPε, VHR, VHX); test: Inhibition of a panel of mammalian PTPs at 10 μM; type: biochemical
Protocol: as §1

[9] = test system: Foxo1 target genes in mouse primary hepatocytes; test: Foxo1 target gene expression in mouse primary hepatocytes (real-time PCR); type: cell-based; conditions: with insulin, overnight, normalized with Ppia
Protocol: FIGS. 4A-B depict the ability of PTP-MEG2 inhibitor Compound 7 to sensitize insulin signaling in primary hepatocytes. […] Mouse primary hepatocytes were cultured in 0.5% FBS DMEM medium overnight. Prior to insulin stimulation, the cells were pretreated with Compound 7 or 8 for 1 hour. Then the cells were stimulated with 5 nM insulin for 5 minutes. Insulin signaling was analyzed by Western Blots using phospho-specific antibodies. […] Mouse primary hepatocytes were cultured in DMEM medium plus 0.5% FBS for overnight in the presence or absence of insulin or Compound 7 or 8. Then the cells were harvested for mRNA isolation and gene expression analysis using real-time PCR. The mRNA levels of Foxo1 target genes were normalized with Ppia as an internal control. Data are presented as mean±SEM. *, P<0.05 for Compound 7 vs. DMSO; #, P<0.05 for INS+Compound 7 vs. INS alone.
RNA isolation and real-time PCR. RNA isolation was performed as described previously (Jänne, et al. Nat. Rev. Drug Discov. 2009, 8, 709-723). Real-time RT-PCR was performed in two steps: first, cDNA was synthesized using a cDNA synthesis kit (Applied Biosystems Inc.); second, cDNA was analyzed by real-time PCR using SYBR Green Master Mix (Promega). […]

[10] = Pharmacokinetics in mouse plasma; type: in vivo; conditions: for Cmax: mouse plasma
Protocol: Pharmacokinetic parameters for Compound 7. Compound 7 was quantified in mouse plasma using protein precipitation, internal standardization, and HPLC-MS/MS. Acetone was used to precipitate proteins and Compound 8 was the internal standard. Compound 7 and Compound 8 were separated using a C8 50×4.6 mm 5 um (Restek Ultra) HPLC column and a gradient mobile phase (acetonitrile:5 mM ammonium acetate). Compounds were detected using ESI in positive mode (Thermo Quantum Ultra; Thermo Fisher). The Q1/Q3 for Compound 7 and Compound 8 were 1087/300 and 957/231, respectively. The lower limit of quantification was 100 ng/mL using 20 μL of mouse plasma.
Pharmacokinetic parameters were estimated for Compound 7 after 5 mg/kg intravenous and 20 mg/kg intraperitoneal dosage, respectively. These parameters including area under the curve (AUC), area under the first moment curve (AUMC) and the elimination rate constant, kel, were estimated using noncompartmental methods with add-ins on Excel®. The maximum plasma concentration (Cmax) was obtained from the data. For the intravenous injection, the Cmax was estimated by extrapolating the data to zero time. The terminal half-life, t1/2, was estimated with 0.693/kel. The AUC from the last concentration, Clast, to infinity was estimated by Clast/kel. The systemic clearance (Cl or Cl/F) was calculated with dose/AUC0-∞ and the volume of distribution at steady state (Vdss or Vdss/F) was calculated using the Cl and the mean residence time (MRT; MRT=(Dose/AUC)×(AUMC/AUC)). The bioavailability (F) was estimated by comparing the Cl of intravenous and intraperitoneal injections.

[11] = test system: insulin signaling in metabolic tissues of diet-induced obese mice; test: Insulin signaling in liver, skeletal muscle and white adipose tissue of diet-induced obese mice (immunoblot); type: in vivo, mouse; conditions: skeletal muscle, white adipose tissue, 2-week injections, insulin bolus
Description: To investigate the underlying mechanisms responsible for the improved insulin sensitivity in Compound 7 treated diet-induced obese mice, we analyzed key insulin signaling events in metabolically active tissues. Phosphorylation of Tyr1162/1163 residues in IR was stimulated 2-3 fold higher in the liver, skeletal muscle, and white adipose tissue in Compound 7 treated mice than that in control mice (FIGS. 5G & H). […] These biochemical data are consistent with the animal phenotype that Compound 7 can effectively improve insulin sensitivity in diet-induced obese mice. Our finding that chemical inhibition of PTP-MEG2 augments insulin signaling, insulin sensitivity and glucose homeostasis in insulin resistant mice is consistent with the observation that silencing of PTP-MEG2 in the livers of db/db mice results in a reversal of insulin resistance and hyperglycemia (Cho, et al., Cell Metab. 2006, 3, 367-378). Moreover, our in vivo data also serve as proof-of-concept and support the notion that specific inhibitors of PTP-MEG2 may be effective anti-diabetes agents.

[12] = mouse, 20 mg/Kg intraperitoneal injection
[13] = plasma, mouse, 5 mg/Kg intravenous injection

Chain of PTP1B (P18031 whole entry, species assumed): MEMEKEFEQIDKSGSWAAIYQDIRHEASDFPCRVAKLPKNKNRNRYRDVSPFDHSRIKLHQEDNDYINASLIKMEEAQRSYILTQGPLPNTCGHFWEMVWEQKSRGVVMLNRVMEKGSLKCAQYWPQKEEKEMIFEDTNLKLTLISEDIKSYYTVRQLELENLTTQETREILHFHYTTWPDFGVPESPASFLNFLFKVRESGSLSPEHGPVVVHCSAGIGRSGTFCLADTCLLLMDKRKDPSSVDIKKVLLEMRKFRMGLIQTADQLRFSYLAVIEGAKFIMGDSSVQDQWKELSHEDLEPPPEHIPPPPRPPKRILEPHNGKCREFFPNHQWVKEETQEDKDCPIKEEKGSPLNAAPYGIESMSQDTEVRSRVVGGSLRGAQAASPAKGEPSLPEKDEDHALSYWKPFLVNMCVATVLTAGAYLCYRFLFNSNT

In the case of `COc1cc(CC(=O)NCC(NC(=O)C(CCCNC(=O)c2cccc(I)c2)NC(=O)C(Cc2ccc(C(F)(F)P(=O)(O)O)cc2)NC(=O)c2ccc(C)c(Br)c2)C(N)=O)ccc1O` (stereo not drawn) [Compound 7], the IC50 ([1]; pNPP substrate) is reported as 0.86 µM, the “selectivity for PTP-MEG2 over PTP1B” value ([1]; ratio of IC50 values) is reported as “more than 10 fold” and the IC50 [2] is reported as > 10000 nM. The IC50 [3] was > 10000 nM, the IC50 [4] was > 10000 nM and the IC50 [5] was > 10000 nM. For the same compound, the IC50 [6] was > 10000 nM, the IC50 [7] was > 10000 nM and the “inhibition of a panel of mammalian PTPs” value [8] was “no inhibition”. The “Pdk4, Igfbp1, and G6pc gene expression (Foxo1 transcriptional activity)” value [9] was “synergistic reduction”, the Cmax ([10]; ip, 20 mg/Kg intraperitoneal injection) was 4.5 µM and the Cmax ([10]; 5 mg/Kg intravenous injection, extrapolated to zero time) was 25.7 µM. The Cl/F [10, 12] was 0.047 L/h, the t1/2 [10, 12] was 1.8 h and the half-life ([10]; plasma, ip, mouse, 20 mg/Kg intraperitoneal injection) was 1.8 h. It also gave a Vd/F ([10]; plasma, ip, mouse, 20 mg/Kg intraperitoneal injection, read-out: Vdss/F) of 0.08 L, a clearance [10, 13] of 0.233 mL/min and a half-life [10, 13] of 0.8 h. The Vd ([10]; plasma, mouse, 5 mg/Kg intravenous injection, read-out: Vdss) was 0.007 L, the “increase of Akt (Ser473) phosphorylation” value [11] was 40-60% and the “phosphorylation of Tyr1162/1163 in IR, higher than control mice” value [11] was 2-3 fold.
